In US8729054B2, “3-desoxy-2-methylene-vitamin D analogs and their uses” (Wisconsin Alumni Research Foundation, priority 2011, dated 2014):
Entries after “also recorded” stand apart in the source; their conditions may differ.

How the values were obtained:
[1] = molecular target: T1, full-length recombinant rat vitamin D receptor (Rattus norvegicus, UniProt P13053); assay: Vitamin D receptor binding, competition with [3H]-1,25(OH)2D3; details: full-length recombinant rat VDR; for Ki: 1 nM radioligand
T1 construct: Full-length recombinant rat receptor was expressed in E. coli BL21 (DE3) Codon Plus RIL cells; histidine tag (C); made in house; host or cells: E. coli BL21 (DE3) Codon Plus RIL
T1 sequence (P13053 1-423): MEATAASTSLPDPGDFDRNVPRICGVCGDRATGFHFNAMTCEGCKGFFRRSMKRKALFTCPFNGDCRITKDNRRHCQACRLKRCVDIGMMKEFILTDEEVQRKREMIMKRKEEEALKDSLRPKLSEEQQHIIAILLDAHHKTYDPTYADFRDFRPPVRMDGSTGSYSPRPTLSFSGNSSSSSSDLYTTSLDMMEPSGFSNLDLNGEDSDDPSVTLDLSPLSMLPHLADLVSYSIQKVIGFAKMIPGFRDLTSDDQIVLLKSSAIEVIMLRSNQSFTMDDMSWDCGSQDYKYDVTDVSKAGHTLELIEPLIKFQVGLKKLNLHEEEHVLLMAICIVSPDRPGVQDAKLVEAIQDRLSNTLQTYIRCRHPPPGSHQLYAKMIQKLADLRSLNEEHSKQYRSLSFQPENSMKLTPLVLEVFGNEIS
Method: Full-length recombinant rat receptor was expressed in E. coli BL21 (DE3) Codon Plus RIL cells and purified to homogeneity using two different column chromatography systems. The first system was a nickel affinity resin that utilizes the C-terminal histidine tag on this protein. The protein that was eluted from this resin was further purified using ion exchange chromatography (S-Sepharose Fast Flow). Aliquots of the purified protein were quick frozen in liquid nitrogen and stored at −80° C. until use. For use in binding assays, the protein was diluted in TEDK50 (50 mM Tris, 1.5 mM EDTA, pH 7.4, 5 mM DTT, 150 mM KCI) with 0.1% Chaps detergent. The receptor protein and ligand concentration was optimized such that no more than 20% of the added radiolabeled ligand was bound to the receptor.
Radiolabeled and unlabeled ligands were added to 100 mcl of the diluted protein at a final ethanol concentration of ≦10%, mixed and incubated overnight on ice to reach binding equilibrium. The following day, 100 mcl of hydroxylapatite slurry (50%) was added to each tube and mixed at 10-minute intervals for 30 minutes. The hydroxylapaptite was collected by centrifugation and then washed three times with Tris-EDTA buffer (50 mM Tris, 1.5 mM EDTA, pH 7.4) containing 0.5% Titron X-100. After the final wash, the pellets were transferred to scintillation vials containing 4 ml of Biosafe II scintillation cocktail, mixed and placed in a scintillation counter. Total binding was determined from the tubes containing only radiolabeled ligand.

[2] = system: Human promyelocytic leukemia (HL60) cells; assay: HL-60 differentiation (nitro blue tetrazolium reduction); format: cell-based; details: for EC50: HL60 cells, four days after treatment, NBT reduction
Method: The study drugs were dissolved in ethanol and the concentrations determined using UV spectrophotometry. Serial dilutions were prepared so that a range of drug concentrations could be tested without changing the final concentration of ethanol (≦0.2%) present in the cell cultures.
Human promyelocytic leukemia (HL60) cells were grown in RPMI-1640 medium containing 10% fetal bovine serum. The cells were incubated at 37° C. in the presence of 5% CO2.
HL60 cells were plated at 1.2×10^5 cells/ml. Eighteen hours after plating, cells in duplicate were treated with drug. Four days later, the cells were harvested and a nitro blue tetrazolium reduction assay was performed (Collins et al., 1979; J. Exp. Med. 149:969-974). The percentage of differentiated cells was determined by counting a total of 200 cells and recording the number that contained intracellular black-blue formazan deposits. Verification of differentiation to monocytic cells was determined by measuring phagocytic activity (data not shown).

[3] = system: 24-hydroxylase (24Ohase) gene promoter; assay: In vitro transcription assay, luciferase reporter in ROS 17/2.8 (bone) cells; format: cell-based; details: for transcriptional activity in bone cells as compared to 1α,25-dihydroxyvitamin D3: 24-hydroxylase gene; for EC50: ROS 17/2.8 cells, luciferase, sixteen hours after dosing, read-out: EC50, transcriptional activity in bone cells (24-hydroxylase gene)
Method: Transcription activity was measured in ROS 17/2.8 (bone) cells that were stably transfected with a 24-hydroxylase (24Ohase) gene promoter upstream of a luciferase reporter gene (Arbour et al., 1998). Cells were given a range of doses. Sixteen hours after dosing the cells were harvested and luciferase activities were measured using a luminometer. RLU=relative luciferase units.

[4] = system: vitamin D-deficient rats; assay: Bone calcium mobilization (serum calcium); format: in vivo, rat; details: for bone calcium mobilization activity as compared to 1,25(OH)2D3: rats on low calcium diet (0.02%), four consecutive ip doses
Method: (§1) Male, weanling Sprague-Dawley rats were placed on Diet 11 (Suda et al, J. Nutr. 100:1049, 1970) (0.47% Ca)+vitamins AEK for one week followed by Diet 11 (0.02% Ca)+vitamins AEK for 3 weeks. The rats were then switched to the same diet containing 0.47% Ca for one week followed by two weeks on the same diet containing 0.02% Ca. Dose administration began during the last week on 0.02% calcium diet. Four consecutive ip doses were given approximately 24 hours apart. Twenty-four hours after the last dose, blood was collected from the severed neck and the concentration of serum calcium determined by atomic absorption spectrometry as a measure of bone calcium mobilization. The first 10 cm of the intestine was also collected for intestinal calcium transport analysis using the everted gut sac method.

[5] = system: vitamin D-deficient rats; assay: Intestinal calcium transport (everted gut sac method); format: in vivo, rat; details: rats on low calcium diet (0.02%), four consecutive ip doses
Method: as §1

SMILES	affinity to the receptor as compared to 1,25(OH)2D3 [1]	Ki [1]	potency on HL-60 cell differentiation as compared to 1,25(OH)2D3 [2]	EC50 ([2]; Homo sapiens, HL-60, 96 h)	transcriptional activity in bone cells as compared to 1α,25-dihydroxyvitamin D3 [3]	EC50 [3]	mobilization of bone calcium as compared to native hormone at the same dose ([4]; 87 pmol/day for 4 consecutive days)	bone calcium mobilization activity as compared to 1,25(OH)2D3 [4]	EC50 [2]	serum calcium levels ([4]; at the dosages tested)	potency on HL-60 cell differentiation relative to 1,25(OH)2D3 ([2]; compared with 1,25(OH)2D3)	intestinal calcium transport activity as compared to 1,25(OH)2D3 [5]	mobilization of bone calcium as compared to native hormone at the same dose ([4]; 780 pmol/day for 4 consecutive days)
C=C1CC/C(=C/C=C2\CCC[C@]3(C)[C@@H]([C@H](C)CCCC(C)(C)O)CC[C@@H]23)C(=C)[C@H]1O [3D-QM, (20R)-3-desoxy-1α,25-dihydroxy-2-methylene-vitamin D3]	about the same affinity	0.4 nM	about the same potency as 1,25(OH)2D3	1 nM	about the same transcriptional activity	0.2 nM	only slightly less mobilization of bone calcium than the native hormone	about the same potency as the native hormone					
C=C1/C(=C\C=C2/CCC[C@]3(C)[C@@H]([C@H](C)CCCC(C)(C)O)CC[C@@H]23)C[C@@H](O)C[C@@H]1O [1α,25-dihydroxyvitamin D3, reference compound]									3 nM	increased serum calcium levels			
C=C1CC/C(=C/C=C2\CCC[C@]3(C)[C@@H]([C@@H](C)CCCC(C)(C)O)CC[C@@H]23)C(=C)[C@H]1O [3D-QMS, (20S)-3-desoxy-1α,25-dihydroxy-2-methylene-vitamin D3]	about the same affinity	0.3 nM		0.08 nM	about the same transcriptional activity	0.03 nM		more potent than the native hormone; also recorded: significantly more activity in mobilizing calcium from bone than 1,25(OH)2D3			about 40 times	more potent than 1,25(OH)2D3	higher mobilization of bone calcium than the native hormone
